Data from patent US4102918A, “Anionic phenylcarboxamide complement inhibitors” (American Cyanamid Company, priority 1977, dated 1978).
Structures can show the parent of a compound that is named as a salt.

Experiments:
Details in all cases: activity in wells, two-fold serial dilution assay; higher well number indicates higher activity
activated human C1 = target: T1, activated human C1 (Homo sapiens, UniProt P09871); assay: Test, Code 026 (C1 inhibitor); format: biochemical
T1 construct: fluid-phase C2 cleavage in presence of C4
Description: (§1) An active inhibitor protects C2 from C1 and C4; (ii) Test, Code 035 (C3-C9 inhibitor) -- This test determines the ability of the late components of human complement (C3-C9) to lyse EAC 142 in the presence of appropriate dilutions of the test compound. An active inhibitor protects EAC 142 from lysis by human C3-C9; (iii) Test, Code 036 (C-shunt inhibitor) -- In this test human erythrocytes rendered fragile are lysed in autologous serum via the shunt pathway activated by cobra venom factor in the presence of appropriate dilutions of the test compound. Inhibition of the shunt pathway results in failure of lysis; (iv) Forssman Vasculitis Test -- Here, the well known complement dependent lesion, Forssman vasculitis, is produced in guinea pigs by intradermal injection of rabbit anti-Forssman antiserum. The lesion is measured in terms of diameter, edema and hemorrhage and the extent to which a combined index of these is inhibited by prior intraperitoneal injection of the test compound at 200 mg/kg is then reported, unless otherwise stated; (v) Forssman Shock Test -- Lethal shock is produced in guinea pigs by an i.v. injection of anti-Forssman antiserum and the harmonic mean death time of treated guinea pigs is compared with that of simultaneous controls; (vi) Complement Level Reduction Test -- In this test, the above dosed guinea pigs, or others, are bled for serum and the complement level is determined in undiluted serum by the capillary tube method of U.S. Pat. No. 3,876,376 and compared to undosed control guinea pigs; and (vii) Cap 50 Test -- Here, appropriate amounts of the test compound are added to a pool of guinea pig serum in vitro, after which the undiluted serum capillary tube assay referred to above is run. The concentration of compound inhibiting 50% is reported.

[1] = tested on: late components of human complement (C3-C9); assay: Test, Code 035 (C3-C9 inhibitor), lysis of EAC 142; format: biochemical
Description: as §1

shunt pathway = assay: Test, Code 036 (C-shunt inhibitor), lysis of fragile human erythrocytes in autologous serum, cobra venom factor activated; format: cell-based
Description: as §1

T1 sequence (P09871 16-688): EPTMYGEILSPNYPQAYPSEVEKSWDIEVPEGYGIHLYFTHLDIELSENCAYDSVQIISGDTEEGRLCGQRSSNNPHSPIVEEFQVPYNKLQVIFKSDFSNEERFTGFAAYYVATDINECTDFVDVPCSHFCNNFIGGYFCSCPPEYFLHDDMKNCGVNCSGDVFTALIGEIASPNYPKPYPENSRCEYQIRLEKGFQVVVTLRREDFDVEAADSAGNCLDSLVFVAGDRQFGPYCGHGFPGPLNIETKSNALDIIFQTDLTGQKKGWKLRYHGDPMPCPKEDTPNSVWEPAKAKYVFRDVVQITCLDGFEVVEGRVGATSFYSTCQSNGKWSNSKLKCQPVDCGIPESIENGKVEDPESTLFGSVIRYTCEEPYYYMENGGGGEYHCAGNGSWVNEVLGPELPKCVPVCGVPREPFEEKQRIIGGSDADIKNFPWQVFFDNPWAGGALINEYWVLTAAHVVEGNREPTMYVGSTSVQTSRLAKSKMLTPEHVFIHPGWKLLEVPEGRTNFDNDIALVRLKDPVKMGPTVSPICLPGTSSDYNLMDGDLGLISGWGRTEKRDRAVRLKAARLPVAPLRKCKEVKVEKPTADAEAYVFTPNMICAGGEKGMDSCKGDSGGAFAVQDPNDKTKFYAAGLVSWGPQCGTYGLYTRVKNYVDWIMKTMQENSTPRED
T1 sequence (P00736 18-705 partner): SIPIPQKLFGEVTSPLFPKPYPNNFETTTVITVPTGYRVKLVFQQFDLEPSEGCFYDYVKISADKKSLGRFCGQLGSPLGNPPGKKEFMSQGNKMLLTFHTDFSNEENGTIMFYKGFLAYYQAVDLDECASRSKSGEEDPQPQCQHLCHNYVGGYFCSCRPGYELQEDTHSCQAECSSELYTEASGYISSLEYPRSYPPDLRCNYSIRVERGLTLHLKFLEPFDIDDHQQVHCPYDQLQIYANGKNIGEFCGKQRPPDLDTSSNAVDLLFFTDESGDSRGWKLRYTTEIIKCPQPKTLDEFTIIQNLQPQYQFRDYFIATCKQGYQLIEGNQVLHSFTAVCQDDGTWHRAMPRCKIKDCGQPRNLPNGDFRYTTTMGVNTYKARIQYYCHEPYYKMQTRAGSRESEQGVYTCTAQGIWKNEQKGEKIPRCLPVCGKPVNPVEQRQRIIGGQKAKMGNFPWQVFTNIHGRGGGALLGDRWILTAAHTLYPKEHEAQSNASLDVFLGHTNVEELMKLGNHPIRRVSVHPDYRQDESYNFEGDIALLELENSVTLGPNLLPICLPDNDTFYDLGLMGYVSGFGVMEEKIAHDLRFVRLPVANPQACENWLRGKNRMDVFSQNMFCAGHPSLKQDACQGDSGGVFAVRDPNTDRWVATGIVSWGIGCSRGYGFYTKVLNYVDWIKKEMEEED
T1 sequence (P02745 23-245 partner): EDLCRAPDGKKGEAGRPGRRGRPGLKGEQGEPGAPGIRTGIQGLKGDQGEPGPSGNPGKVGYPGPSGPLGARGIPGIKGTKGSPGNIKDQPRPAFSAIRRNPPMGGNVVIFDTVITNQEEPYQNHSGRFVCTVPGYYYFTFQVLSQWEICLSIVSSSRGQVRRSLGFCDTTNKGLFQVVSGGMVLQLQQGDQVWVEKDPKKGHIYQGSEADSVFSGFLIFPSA
T1 sequence (P02746 28-253 partner): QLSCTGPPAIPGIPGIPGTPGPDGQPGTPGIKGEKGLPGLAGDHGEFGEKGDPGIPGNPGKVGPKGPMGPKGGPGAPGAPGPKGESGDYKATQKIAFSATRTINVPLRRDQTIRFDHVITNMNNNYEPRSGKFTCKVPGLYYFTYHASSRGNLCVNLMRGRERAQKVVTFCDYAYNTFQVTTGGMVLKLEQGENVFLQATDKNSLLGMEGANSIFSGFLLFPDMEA
T1 sequence (P02747 29-245 partner): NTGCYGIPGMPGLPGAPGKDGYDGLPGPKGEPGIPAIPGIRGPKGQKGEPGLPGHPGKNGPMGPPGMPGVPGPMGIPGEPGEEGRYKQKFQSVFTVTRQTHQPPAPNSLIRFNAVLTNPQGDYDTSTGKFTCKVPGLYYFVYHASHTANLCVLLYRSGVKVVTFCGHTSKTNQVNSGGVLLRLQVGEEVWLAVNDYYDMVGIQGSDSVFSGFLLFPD

| SMILES | Cl 026 Wells (activated human C1) | C-Late 035 Wells [1] | Shunt Inhibition 036 Wells (shunt pathway) |
| --- | --- | --- | --- |
| Nc1cc(C(=O)Nc2cc(C(=O)O)c(O)c(S(=O)(=O)O)c2)cc(C(=O)Nc2cc(C(=O)O)c(O)c(S(=O)(=O)O)c2)c1 [5,5'-[5-Amino-1,3-phenylenebis(carbonylimino)]bis[3-sulfosalicylic acid]disodium salt] | +2 Wells | N | N |
| O=C(Nc1ccc(O)c(C(=O)O)c1)c1cc(C(=O)Nc2ccc(O)c(C(=O)O)c2)cc([N+](=O)[O-])c1 [5,5'-[5-Nitro-m-phenylenebis(carbonylimino)]disalicylic acid] | α | N | N |
| O=C(Nc1cc(C(=O)O)c(O)c(S(=O)(=O)O)c1)c1cc(C(=O)Nc2cc(C(=O)O)c(O)c(S(=O)(=O)O)c2)cc([N+](=O)[O-])c1 [5,5'-[(5-Nitro-1,3-phenylene)bis(carbonylimino)]bis[3-sulfosalicylic acid]disodium salt] | +2 Wells | N | N |
